One data set addresses T1, VEGFR2 (Homo sapiens, UniProt P35968).
T1 construct: purchased Carna 08-191
Briefly: Kinase inhibitory activity, Mobility Shift Assay (VEGFR2). The class given is biochemical. In short, it runs like this:
(§1)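 Each kinase pre-incubated 10 min at room temperature, then FAM-labelled peptide with MgCl2 and ATP added; reaction at 28 °C for kinase-dependent times before stop. Substrate conversion read by mobility shift; IC50 from a four-parameter fit of % inhibition against log concentration.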

A further data set has as its target T2, EGFR (Homo sapiens, UniProt P00533).
T2 construct: purchased Carna 08-115
Briefly: Kinase inhibitory activity, Mobility Shift Assay (EGFR). It counts as biochemical. In short, it runs like this:
as §1

The target of the next data set is T3, VEGFR1 (Homo sapiens, UniProt P17948).
T3 construct: purchased Invitrogen PR6731B
T3 sequence (P17948 27-1338): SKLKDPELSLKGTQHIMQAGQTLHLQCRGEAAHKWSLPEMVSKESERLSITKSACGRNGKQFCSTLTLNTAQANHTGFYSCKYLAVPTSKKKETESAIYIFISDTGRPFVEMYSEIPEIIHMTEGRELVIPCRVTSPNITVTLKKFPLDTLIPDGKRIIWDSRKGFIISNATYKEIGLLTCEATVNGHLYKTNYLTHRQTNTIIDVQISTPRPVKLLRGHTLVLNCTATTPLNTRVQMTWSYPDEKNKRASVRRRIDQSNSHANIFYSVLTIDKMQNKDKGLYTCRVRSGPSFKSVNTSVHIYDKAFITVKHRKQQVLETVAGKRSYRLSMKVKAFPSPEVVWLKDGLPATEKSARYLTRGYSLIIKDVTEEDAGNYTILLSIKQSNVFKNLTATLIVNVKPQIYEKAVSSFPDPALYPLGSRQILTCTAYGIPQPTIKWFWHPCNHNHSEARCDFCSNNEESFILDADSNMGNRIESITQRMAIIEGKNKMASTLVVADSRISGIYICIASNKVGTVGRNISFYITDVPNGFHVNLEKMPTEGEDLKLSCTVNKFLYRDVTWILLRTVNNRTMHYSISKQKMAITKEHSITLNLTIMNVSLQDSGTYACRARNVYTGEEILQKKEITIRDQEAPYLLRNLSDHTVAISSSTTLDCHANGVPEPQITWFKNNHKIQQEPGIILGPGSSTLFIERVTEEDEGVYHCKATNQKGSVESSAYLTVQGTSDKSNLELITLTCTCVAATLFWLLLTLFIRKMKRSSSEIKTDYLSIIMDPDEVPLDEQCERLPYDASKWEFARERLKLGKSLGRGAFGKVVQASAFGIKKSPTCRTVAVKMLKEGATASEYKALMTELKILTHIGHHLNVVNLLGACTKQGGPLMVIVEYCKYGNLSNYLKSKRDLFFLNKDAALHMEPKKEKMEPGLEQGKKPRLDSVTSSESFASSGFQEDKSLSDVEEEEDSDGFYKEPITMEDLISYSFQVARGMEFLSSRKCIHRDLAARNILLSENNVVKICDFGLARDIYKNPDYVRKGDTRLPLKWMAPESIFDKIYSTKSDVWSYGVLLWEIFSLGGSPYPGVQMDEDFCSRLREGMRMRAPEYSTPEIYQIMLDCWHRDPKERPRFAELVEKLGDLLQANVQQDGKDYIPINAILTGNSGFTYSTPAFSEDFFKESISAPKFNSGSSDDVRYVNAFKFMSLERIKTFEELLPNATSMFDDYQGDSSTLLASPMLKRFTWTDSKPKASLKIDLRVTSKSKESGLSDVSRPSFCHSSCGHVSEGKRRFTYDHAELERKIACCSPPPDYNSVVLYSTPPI
Briefly: Kinase inhibitory activity, Mobility Shift Assay (VEGFR1). The class given is biochemical. The method, then: (§2) Assay for Inhibitory Activity of Compounds Against VEGFR and EGFR Kinases
(§3) This assay directly monitors the inhibitory activity of compounds on kinase phosphorylation by measuring non-phosphorylated and phosphorylated substrates in the kinase reaction using Mobility Shift Assays/IMAP™ analysis. Table 2. Reagents and Instruments
(§4) Kinase and DTT were added to 1X kinase buffer to form a 2.5X kinase solution; 10 µL of the 2.5X kinase solution was transferred to a 384-well reaction plate, and 1X kinase buffer was added to the negative control wells. The plate was incubated at room temperature for 10 minutes; FAM-labeled peptide, MgCl2, ATP, and other reagents were added to 1X kinase buffer to form a 2.5X substrate solution; 10 µL of the above 2.5X substrate solution was transferred to the 384-well reaction plate; the plate was incubated at 28°C for varying times, and then 25 µL of stop solution was added to the 384-well reaction plate to terminate the reaction. Conversion rate data were read on a CaliperEZ Reader II. […] IC50 values were fitted using XLFit excel add-in version 5.4.0.8. Y = Bottom + (Top−Bottom)/(1 + […]) [formula]
(§5) X is the log value of compound concentration, Y is the inhibition rate (% inhibition).

A further data set addresses T4, VEGFR3 (Homo sapiens, UniProt P35916).
T4 construct: purchased Invitrogen PV4129
The experiment in a line: Kinase inhibitory activity, Mobility Shift Assay (VEGFR3). It counts as biochemical. Here is the method: as §2, §3, §4, §5

For data set [1], the target named is T5, VEGFR2 autophosphorylation (pVEGFR2) in HUVEC cells (Homo sapiens, UniProt P35968).
T5 construct: endogenous in cells; host or cells: HUVEC
The experiment in a line: Inhibition of VEGF-induced VEGFR2 phosphorylation in HUVEC cells (ELISA). Particulars: 50 ng/mL human VEGF, compound 1 hour. It counts as cell-based. The text has this:
Assay for Compound Inhibition of VEGFR2 Phosphorylation in HUVEC Cells
VEGF is a potent growth factor that promotes angiogenesis and vascular permeability. Vascular endothelial growth factor receptor 2 (VEGFR2) is the primary receptor for VEGF-induced endothelial cell signaling. Upon ligand binding, VEGFR2 undergoes autophosphorylation and is activated. The primary function from VEGFR2 signaling is to induce blood vessel formation during development and after tissue injury, and to bypass blocked vessels. Pathologically, VEGF and VEGFR2 are involved in tumor angiogenesis and vascular leakage. They are considered major players in many different cancers and ocular diseases accompanied by pathological neovascularization. This assay uses ELISA to measure the compound's ability to inhibit VEGF-induced VEGFR2 autophosphorylation (pVEGFR2) in HUVEC cells. Table 7. Reagents and Instruments
Before cell seeding, cells reached 60%-80% confluency in cell culture flasks. The cell suspension was diluted with pre-warmed complete medium to 4.5×10^6 cells/mL. 80 microliters of cell suspension was added to all wells of a 96-well cell plate (Corning-3599); incubated overnight at 37°C and 5% CO2. Compound powder was dissolved in DMSO to 10 mM and stored in a nitrogen cabinet. Compound dilution master plate: In a 96-well V-bottom plate (Axygen- WIPP02280), reference compound Ponatinib or test compound concentrations were added, starting from 5 mM (5 microliters of 10 mM compound solution plus 5 microliters DMSO) with 3-fold serial dilutions for a total of 8 concentration points. […] 20 microliters of diluted compound was transferred from the intermediate plate to the cell plate. The cell plate was then incubated at 37°C and 5% CO2 for 1 hour. […] It was gently shaken for 30 seconds, and the absorbance was measured within 30 minutes using a SpectraMax® 340 PC 384 Absorbance Microplate Reader, reading the optical density value at 450 nm. […]
All other values are expressed as a percentage of these controls (inhibition rate). […]

Data set [2] can be described thus: Ophthalmic formulations based on polyethylene glycol series vehicles: composition and state (Example 7). It counts as physicochemical. In short, it runs like this: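 Compound was dissolved, or nearly dissolved, in PEG 400 by sonication (heated to 50 °C if needed), then mixed into Tris-HCl buffer containing hydroxypropyl-β-cyclodextrin, poloxamer 188 and gellan gum or another viscosity modifier. Physical state was scored visually as solution, near-clear solution, suspension or gel.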

Where [3] appears, read: Table 15: 10 mg/mL, Polyethylene glycol 400 10, Hydroxypropyl-β-cyclodextrin 10, Gellan Gum Gelrite 0.3, Poloxamer 188 1, Tris solution and Citric acid.
Setting [4] is: Table 16: 2 mg/mL, Polyethylene Glycol 400 5, Poloxamer 188 1, Hydroxypropyl-β-cyclodextrin 6, Gellan Gum Gelrite 0.15, Tris-HCl Buffer (pH 6.8) 25mM.

T4 sequence (P35916 25-1363): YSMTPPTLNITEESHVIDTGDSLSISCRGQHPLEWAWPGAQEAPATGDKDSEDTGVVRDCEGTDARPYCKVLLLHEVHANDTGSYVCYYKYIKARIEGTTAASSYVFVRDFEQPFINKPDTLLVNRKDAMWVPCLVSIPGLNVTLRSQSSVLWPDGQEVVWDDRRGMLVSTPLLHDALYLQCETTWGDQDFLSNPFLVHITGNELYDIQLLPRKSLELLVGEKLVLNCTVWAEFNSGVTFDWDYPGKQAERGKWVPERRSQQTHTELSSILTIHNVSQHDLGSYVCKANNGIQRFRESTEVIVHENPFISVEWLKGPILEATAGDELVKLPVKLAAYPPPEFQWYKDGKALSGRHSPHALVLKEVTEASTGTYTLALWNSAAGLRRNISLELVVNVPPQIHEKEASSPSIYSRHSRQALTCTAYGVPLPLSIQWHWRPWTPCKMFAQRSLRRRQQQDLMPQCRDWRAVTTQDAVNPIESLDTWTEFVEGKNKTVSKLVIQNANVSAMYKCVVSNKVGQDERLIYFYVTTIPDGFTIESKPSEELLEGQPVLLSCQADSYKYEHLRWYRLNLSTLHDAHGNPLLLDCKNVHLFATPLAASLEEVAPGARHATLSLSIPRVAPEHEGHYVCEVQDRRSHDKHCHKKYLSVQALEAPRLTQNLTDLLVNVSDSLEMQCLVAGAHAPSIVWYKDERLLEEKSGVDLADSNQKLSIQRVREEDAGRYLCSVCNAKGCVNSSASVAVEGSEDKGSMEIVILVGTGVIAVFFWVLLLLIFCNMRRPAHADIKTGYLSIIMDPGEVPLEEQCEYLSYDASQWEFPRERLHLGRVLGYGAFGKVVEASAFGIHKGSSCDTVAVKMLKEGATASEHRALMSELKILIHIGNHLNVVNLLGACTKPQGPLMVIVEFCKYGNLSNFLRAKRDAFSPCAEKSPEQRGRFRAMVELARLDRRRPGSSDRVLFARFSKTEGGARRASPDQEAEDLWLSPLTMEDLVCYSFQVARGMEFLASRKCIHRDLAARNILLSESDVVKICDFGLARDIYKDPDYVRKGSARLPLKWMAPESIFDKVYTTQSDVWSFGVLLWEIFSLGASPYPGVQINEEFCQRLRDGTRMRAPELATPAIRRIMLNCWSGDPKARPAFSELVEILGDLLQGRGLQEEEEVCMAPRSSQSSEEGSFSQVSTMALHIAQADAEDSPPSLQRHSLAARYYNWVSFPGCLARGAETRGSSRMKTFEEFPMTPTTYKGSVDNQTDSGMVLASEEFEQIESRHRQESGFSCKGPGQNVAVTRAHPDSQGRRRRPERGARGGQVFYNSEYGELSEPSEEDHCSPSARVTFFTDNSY
T2 sequence (P00533 25-1210): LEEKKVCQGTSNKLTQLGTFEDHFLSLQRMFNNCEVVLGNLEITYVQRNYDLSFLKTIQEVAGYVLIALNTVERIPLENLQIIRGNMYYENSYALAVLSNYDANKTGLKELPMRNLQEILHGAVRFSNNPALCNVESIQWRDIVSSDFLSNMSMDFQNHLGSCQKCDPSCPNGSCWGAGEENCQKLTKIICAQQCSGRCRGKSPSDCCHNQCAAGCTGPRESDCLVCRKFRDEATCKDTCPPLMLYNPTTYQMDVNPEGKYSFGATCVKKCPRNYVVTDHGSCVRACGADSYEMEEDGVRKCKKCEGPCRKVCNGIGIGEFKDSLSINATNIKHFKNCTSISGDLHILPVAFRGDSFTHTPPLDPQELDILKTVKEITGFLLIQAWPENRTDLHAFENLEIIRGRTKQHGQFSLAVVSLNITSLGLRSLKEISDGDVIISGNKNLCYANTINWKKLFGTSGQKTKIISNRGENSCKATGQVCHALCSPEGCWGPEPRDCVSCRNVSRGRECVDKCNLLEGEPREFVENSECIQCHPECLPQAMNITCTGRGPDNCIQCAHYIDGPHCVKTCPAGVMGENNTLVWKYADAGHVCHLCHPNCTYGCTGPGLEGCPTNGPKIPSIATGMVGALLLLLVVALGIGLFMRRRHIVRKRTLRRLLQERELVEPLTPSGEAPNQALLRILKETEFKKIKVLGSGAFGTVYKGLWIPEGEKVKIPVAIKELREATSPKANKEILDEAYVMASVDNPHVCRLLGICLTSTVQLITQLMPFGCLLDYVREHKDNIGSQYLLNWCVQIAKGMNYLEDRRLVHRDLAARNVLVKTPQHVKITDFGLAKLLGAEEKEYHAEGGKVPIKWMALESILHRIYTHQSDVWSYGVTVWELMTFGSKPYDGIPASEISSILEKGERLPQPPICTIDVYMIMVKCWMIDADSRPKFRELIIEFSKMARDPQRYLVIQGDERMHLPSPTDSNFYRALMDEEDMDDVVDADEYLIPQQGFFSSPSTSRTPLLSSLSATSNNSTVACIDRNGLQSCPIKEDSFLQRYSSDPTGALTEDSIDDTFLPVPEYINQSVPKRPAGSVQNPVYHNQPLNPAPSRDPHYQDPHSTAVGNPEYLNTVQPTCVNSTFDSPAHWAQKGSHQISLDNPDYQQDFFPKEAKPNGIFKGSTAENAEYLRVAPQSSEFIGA

Broadly, the IC50 is the concentration that inhibits the measured activity by half. As for `O=C(NC1CC1)c1cccc(F)c1Sc1ccc2c(/C=C/c3cnn(CCCN4CCCC4)c3)n[nH]c2c1` [Compound I-44, N-cyclopropyl-3-fluoro-2-({3-[(E)-2-{1-[3-(pyrrolidin-1-yl)propyl]-1H-pyrazol-4-yl}ethenyl]-1H-indazol-6-yl}sulfanyl)benzamide], the 50% inhibitory concentration (IC50) on VEGFR2 lay within 1 to 10 nM; on EGFR it was 6000 to 60000 nM; at VEGFR1, 1 to 10 nM; at VEGFR3, 10 to 100 nM; in data set [1], 1 to 5 nM.
With `CCNC(=O)c1cc(F)ccc1Sc1ccc2c(/C=C/c3ccc(CN4CCCC4)cn3)n[nH]c2c1` [Compound I-97, N-ethyl-5-fluoro-2-({3-[(E)-2-{5-[(pyrrolidin-1-yl)methyl]pyridin-2-yl}ethenyl]-1H-indazol-6-yl}sulfanyl)benzamide], in data set [2] (setting [3]), the “State Description: pH” value is approximately 5.5 and the “State Description: state” value is “gel”. For the same molecule, in data set [2] (setting [4]), the “Osmolality (mOsm/kg)” value was approximately 300 mOsm/kg, the “State Description: pH” value is listed as approximately 7 and the “State Description: state” value was “solution”.

(Values after patent EP4781984A1 (Beyang Therapeutics Co., Ltd., priority 2023, dated 2025).)
